Several values for one entry are separate records, joined by “and”; a condition that tells them apart may be missing. Equal entries are not always repeated. Toxic doses and inconclusive results are not listed.
System: BALB/cJ mice, ADJ-PC-6 ip tumor, median survival T/C
Assay: NCI In Vivo Anticancer Drug Screen. Data for tumor model ADJ-PC-6 (intraperitoneal) in BALB/cJ mice
Details: endpoint: median survival time, higher = longer survival
Method: The antitumor activity of compounds was measured in mice bearing transplantable tumors. Survival or tumor size were measured and the results are expressed as the measurement made in the treated group (T) divided by the measurement made in the vehicle treated control group (C). The tumor model used in this assay is ADJ-PC-6 (intraperitoneal) in BALB/cJ mice

CC1=C(C)C(=O)O[C@@H]([C@](C)(O)[C@]2(O)CC[C@@]3(O)[C@@H]4C[C@H]5O[C@]56[C@@H](O)C=CC(=O)[C@]6(C)[C@H]4CC[C@]23C)C1
T/C (dose: 1.0 mg/kg/injection, schedule: Q01DX009 (ip), vehicle: saline + alcohol): 111 % of control | T/C (dose: 1.0 mg/kg/injection, schedule: Q01DX009 (ip), vehicle: saline with Tween-80): 104 % of control | T/C (dose: 2.0 mg/kg/injection, schedule: Q01DX009 (ip), vehicle: saline + alcohol): 96 % of control | T/C (dose: 2.0 mg/kg/injection, schedule: Q01DX009 (ip), vehicle: saline with Tween-80): 107 % of control | T/C (dose: 4.0 mg/kg/injection, schedule: Q01DX009 (ip), vehicle: saline + alcohol): 98 % of control | T/C (dose: 4.0 mg/kg/injection, schedule: Q01DX009 (ip), vehicle: saline with Tween-80): 97 % of control | T/C (dose: 8.0 mg/kg/injection, schedule: Q01DX009 (ip), vehicle: saline + alcohol): 114 % of control | T/C (dose: 8.0 mg/kg/injection, schedule: Q01DX009 (ip), vehicle: saline with Tween-80): 106 % of control

Cc1ncc(CO)c(CO)c1O
T/C (dose: 50.0 mg/kg/injection, schedule: Q01DX014 (sc), vehicle: saline): 115 % of control | T/C (dose: 100.0 mg/kg/injection, schedule: Q01DX014 (sc), vehicle: saline): 99 % of control | T/C (dose: 200.0 mg/kg/injection, schedule: Q01DX014 (sc), vehicle: saline): 120 % of control | T/C (dose: 400.0 mg/kg/injection, schedule: Q01DX014 (sc), vehicle: saline): 117 % of control

CC1CCC(NC(=O)N(CCCl)N=O)CC1 (stereo not drawn)
T/C (dose: 1.25 mg/kg/injection, schedule: Q04DX003 (ip), vehicle: other): 120 % of control | T/C (dose: 2.5 mg/kg/injection, schedule: Q04DX003 (ip), vehicle: other): 182 % of control and 183 % of control | T/C (dose: 5.0 mg/kg/injection, schedule: Q04DX003 (ip), vehicle: other): 158 % of control and 355 % of control | T/C (dose: 10.0 mg/kg/injection, schedule: Q04DX003 (ip), vehicle: other): 337 % of control and 355 % of control | T/C (dose: 20.0 mg/kg/injection, schedule: Q04DX003 (ip), vehicle: other): 272 % of control and 297 % of control

NC(=O)c1cn(C2OC(CO)C(O)C2O)c2ncnc(N)c12 (stereo not drawn)
T/C (dose: 0.4 mg/kg/injection, schedule: Q04DX003 (ip), vehicle: saline with Tween-80): 107 % of control | T/C (dose: 0.8 mg/kg/injection, schedule: Q04DX003 (ip), vehicle: saline with Tween-80): 173 % of control | T/C (dose: 6.0 mg/kg/injection, schedule: Q04DX003 (ip), vehicle: saline with Tween-80): 182 % of control

[Cl][Pt+2][Cl].[NH-]C1CCCC1.[NH2-]
T/C (dose: 1.04 mg/kg/injection, schedule: Q04DX003 (ip), vehicle: saline): 204 % of control | T/C (dose: 1.73 mg/kg/injection, schedule: Q04DX003 (ip), vehicle: saline): 254 % of control | T/C (dose: 2.88 mg/kg/injection, schedule: Q04DX003 (ip), vehicle: saline): 385 % of control | T/C (dose: 4.8 mg/kg/injection, schedule: Q04DX003 (ip), vehicle: saline): 445 % of control | T/C (dose: 8.0 mg/kg/injection, schedule: Q04DX003 (ip), vehicle: saline): 451 % of control

Cc1c2ccncc2c(C)c2c1[nH]c1ccccc12
T/C (dose: 6.25 mg/kg/injection, schedule: Q04DX003 (ip), vehicle: saline with Tween-80): 122 % of control | T/C (dose: 25.0 mg/kg/injection, schedule: Q04DX003 (ip), vehicle: saline with Tween-80): 190 % of control | T/C (dose: 50.0 mg/kg/injection, schedule: Q04DX003 (ip), vehicle: saline with Tween-80): 255 % of control | T/C (dose: 100.0 mg/kg/injection, schedule: Q04DX003 (ip), vehicle: saline with Tween-80): 250 % of control

COc1c(O)c2c(c3cc(C(=O)N4CCc5c4c(O)c(OC)c4[nH]c(C(=O)N6CC7CC78C6=CC(=O)c6[nH]cc(C)c68)cc54)[nH]c13)CCN2C(N)=O (stereo not drawn)
T/C (dose: 25.0 micrograms/kg/injection, schedule: Q04DX003 (ip), vehicle: DMSO): 95 % of control | T/C (dose: 50.0 micrograms/kg/injection, schedule: Q04DX003 (ip), vehicle: DMSO): 96 % of control | T/C (dose: 100.0 micrograms/kg/injection, schedule: Q04DX003 (ip), vehicle: DMSO): 103 % of control | T/C (dose: 200.0 micrograms/kg/injection, schedule: Q04DX003 (ip), vehicle: DMSO): 100 % of control
